How the values were obtained:
[1] = tested on: IL-6 secretion in THP-1 cells; assay: IL-6 secretion in LPS-stimulated THP-1 monocyte-derived macrophages (ELISA); type: cell-based; conditions: FIG. 3
Text: (§1) In FIG. 3, the vertical axis represents the amount (ng) of MCP-1 contained in each mg of cell protein. Wherein, Control (Con) represents blank control treatment, LPS represents lipopolysaccharide treatment, BMS309403 represents inhibitor positive control treatment, RO6806051 (RO) represents lead compound treatment, and Y2, Y3, Y15, Y16 and Y18 represent treatments with compounds Y2, Y3, Y15, Y16 and Y18 prepared in the present invention, respectively.
(§2) Effects of the compounds on monocyte chemoattractant factor-1 (MCP-1) and interleukin-6 (IL-6) in THP-1 monocyte-derived macrophage.
(§3) First, monocytic cell line THP-1 in logarithmic growth phase was plated on a 96-well plate at a cell density of 5*10^5/ml; then 100 nM phorbol myristate ester (PMA) was added to induce the cells for 24 hours to differentiate into macrophages; then the cells were washed once or twice with phosphate buffered saline (PBS), and different concentrations of compounds (5, 10, 25 μM) were added for incubation for 18 hours; finally, after 6 hours of stimulation with 100 ng/ml lipopolysaccharide (LPS), the supernatant was collected and diluted to a certain multiple and the contents of MCP-1 and IL-6 were detected using enzyme-linked immunosorbent assay (ELISA), and cell protein was collected and the protein concentration was measured by BCA method for calibration.

3T3-L1 cells = assay: Lipolysis inhibition in differentiated mature 3T3-L1 adipocytes (supernatant glycerol, forskolin stimulation); type: cell-based; conditions: 80 μM compound, 24 h incubation, 20 μM forskolin 2 h; FIG. 1
Description: In this example, the lipolysis inhibitory activity of the compounds prepared in the present invention on differentiated mature 3T3-L1 preadipocytes was measured.
5 In adipocytes, FABP4 plays the role of a fatty acid chaperone, and gene knockout or drug inhibition of FABP4 can be used to inhibit lipolysis and promote lipid production in adipocytes. Therefore, the lipolysis experiment can be used as a confirmation indicator of the FABP4 inhibitory activity of the compound. In this experiment, the lipolysis activity of the compounds was evaluated by measuring the effect of the compounds prepared in the present 10 invention on the glycerol content of the supernatant of mature adipocytes.
Experimental materials: 3T3-L1 preadipocytes; calf serum, fetal bovine serum, high glucose H-DMEM culture medium, 3-isobutyl-1-methylxanthine (IBMX), dexamethasone, insulin, Forskolin, glycerol determination kit, BCA protein concentration determination kit.
1. 3T3-L1 preadipocytes were inoculated on culture plates and cultured in high-glucose DMEM containing 10% calf serum in a 37° C., 5% CO2 incubator;
2. After the cells were fully grown, contact inhibition was performed for two days;
3. […]
6. The cell supernatant was collected to measure the glycerol content, the intracellular protein concentration was measured by BCA method for calibration, and finally Graphpad Prism was used to analyze the results.

FABP3 = FABP3 (Homo sapiens, UniProt P05413); assay: FABP3 inhibition rate, ANS substrate competition method (illustrated by the FABP4 system); type: binding; conditions: compound 25 μM
Text: (§4) Considering that inhibition of FABP3 would cause myocardial function damage and bring potential safety issues, we tested the inhibitory activity of some compounds on FABP3. The activity test is illustrated by the example of the FABP4 activity test system as below.
(§5) Experimental principle and method: Once the free non-covalent fluorescent probe ANS binds to FABP4, the ANS fluorescence intensity will increase and its spectrum will be blue shifted. In this experiment, the inhibitory effect of the compound on FABP4 was evaluated by measuring the change in the ANS fluorescence signal value. For the FABP4 inhibitory activity test, the ANS substrate competition method was used, and we used the method of Kane and Bernlohr (E. Marr, M. Tardie, M. Carty, T. Brown Phillips, I. K. Wang, W. Soeller, X. Qiu, G. Karam, Expression, purification, crystallization and structure of human adipocyte lipid-binding protein (aP2). Acta Crystallogr., Sect. F: Struct. Biol. Cryst. Commun. 62 (2006) 1058-1060.). Human FABP4 with a His tag was expressed in the BL21 (DE3) strain and then purified using a Ni column with a His tag to generate the protein. In the detection system, the concentration of 1,8-ANS substrate was 10 μM, the final concentration of FABP4 was 10 μM, and then the compound prepared by the present invention was added at the required concentration for incubation for 3 minutes, and finally the fluorescence signal was detected at an excitation wavelength (EX) of 370 nm/emission wavelength (EM) of 470 nm. The inhibition rate (%) of the test sample on FABP4 was calculated according to the fluorescence absorption value of the system. The inhibition rate (%) was calculated according to the following equation: […]
(§6) FX represents the fluorescence value (fluorescence, F) of the system measured in the presence of compound x;
(§7) Fbackground represents the fluorescence value of the fluorescent substrate ANS;
(§8) F0% represents the fluorescence value of the system when the inhibition rate is 0%, that is, when no compound was added.

FABP5 = FABP5 (Homo sapiens, UniProt Q01469); assay: FABP5 inhibition rate, ANS substrate competition method (illustrated by the FABP4 system); type: binding; conditions: compound 25 μM
Human FABP4 = target: T1, Human FABP4 (Homo sapiens, UniProt P15090); assay: FABP4 inhibition rate, ANS substrate competition (fluorescence) method; type: binding; conditions: compound 25 μM; 10 μM 1,8-ANS, 10 μM FABP4
T1 construct: His tag; made in house; host or cells: E. coli BL21 (DE3)
Text: as §4, §5, §6, §7, §8

[2] = tested on: MCP-1 secretion in THP-1 cells; assay: MCP-1 secretion in LPS-stimulated THP-1 monocyte-derived macrophages (ELISA); type: cell-based; conditions: FIG. 2; for secretion of inflammatory factor MCP-1 in THP-1 mononuclear macrophages: 25 μM, 10 μM and 5 μM, 18 h incubation, 100 ng/ml LPS 6 h; for MCP-1 reducing activity compared with BMS309403 and RO6806051: THP-1 macrophages, LPS
Text: as §1, with “FIG. 2A to FIG. 2C,” for “FIG. 3,”, “cell protein: in FIG. 2D, the vertical axis represents the relative concentration of MCP-1 (ng/mg cellular protein % LPS).” for “cell protein.”, “Control” for “Control (Con)”
as §2, §3

prostate cancer cells = conditions: background statement; cited from earlier work

FABP3, sequence (P05413 whole entry): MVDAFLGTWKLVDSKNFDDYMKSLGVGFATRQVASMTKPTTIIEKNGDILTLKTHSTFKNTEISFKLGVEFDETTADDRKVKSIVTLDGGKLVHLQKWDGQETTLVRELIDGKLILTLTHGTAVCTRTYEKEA
FABP5, sequence (Q01469 whole entry): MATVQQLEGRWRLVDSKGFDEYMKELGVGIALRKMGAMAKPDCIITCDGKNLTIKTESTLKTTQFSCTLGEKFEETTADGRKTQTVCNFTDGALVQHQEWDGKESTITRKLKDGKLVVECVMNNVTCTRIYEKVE
T1 sequence (P15090 whole entry): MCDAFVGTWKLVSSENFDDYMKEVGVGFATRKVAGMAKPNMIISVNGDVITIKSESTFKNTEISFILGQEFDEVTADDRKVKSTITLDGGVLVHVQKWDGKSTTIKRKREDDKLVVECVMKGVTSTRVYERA

With `O=C(O)c1c(-c2ccccc2)c2cc(Cl)ccc2c(=O)n1CC1CCCCC1` [Compound Y2, 6-Chloro-2-(cyclohexylmethyl)-1-oxo-4-phenyl-1,2-dihydroisoquinoline-3-carboxylic Acid] the “IL-6 secretion, tendency (no concentration stated)” value [1] was “tendency to reduce IL-6 secretion but with no statistical difference”, the “glycerol content of the supernatant under FSK (forskolin) stimulation” value (3T3-L1 cells) was “significantly reduce the glycerol content” and the inhibition at 25 µM (FABP3) was 48%. For the same compound, the inhibition at 25 µM (FABP5) was 73%, the inhibition at 25 µM (Human FABP4) was 93% and the “secretion of inflammatory factor MCP-1 in THP-1 mononuclear macrophages” value [2] was “could reduce the secretion of inflammatory factor MCP-1”. For the same compound, the “MCP-1 reducing activity compared with BMS309403 and RO6806051” value [2] was “better than those of the positive control FABP4 inhibitor BMS309403 and the lead compound RO6806051”.

For `CCc1c(-c2ccccc2)c(-c2ccccc2)nn1-c1ccccc1-c1cccc(OCC(=O)O)c1` [BMS309403], the “effect on prostate cancer cell proliferation, metastasis and apoptosis” value (prostate cancer cells) is listed as “inhibit cell proliferation and metastasis and promote cell apoptosis”.

With `O=C(O)c1c(-c2ccccc2)c2cc(Cl)ccc2c(=O)n1C1CCCC1` [Compound Y3, 6-Chloro-2-cyclopentyl-1-oxo-4-phenyl-1,2-dihydroisoquinoline-3-carboxylic Acid] the “IL-6 secretion, tendency (no concentration stated)” value [1] was “tendency to reduce IL-6 secretion but with no statistical difference”, the “glycerol content of the supernatant under FSK (forskolin) stimulation” value (3T3-L1 cells) was “significantly reduce the glycerol content” and the inhibition at 25 µM (FABP3) was 36%. For the same compound, the inhibition at 25 µM (FABP5) was 68%, the inhibition at 25 µM (Human FABP4) was 93% and the “secretion of inflammatory factor MCP-1 in THP-1 mononuclear macrophages” value [2] was “could reduce the secretion of inflammatory factor MCP-1”. For the same compound, the “MCP-1 reducing activity compared with BMS309403 and RO6806051” value [2] was “better than those of the positive control FABP4 inhibitor BMS309403 and the lead compound RO6806051”.

Reference: patent US20250170121A1, “ISOQUINOLINONE COMPOUND, AND PREPARATION METHOD AND USE THEREFOR” (FUDAN UNIVERSITY, priority 2022, published 2025)
